In data set [1] the test system is GR trans-repression and trans-activation targets, cell cycle genes and beta cell phenotype markers. Description: Q-PCR of mRNA levels in cultured beta cells. It counts as cell-based, rat. The following applies: 9 days culture; 1 μM 6MP, 1 μM MIF, 0.5 μM CPA; vehicle = 1.0.
Data set [2] relates to rat beta cells. Briefly: Beta cell DNA synthesis/proliferation by EdU (and BrdU) incorporation, incl. LOPAC screen. The format is cell-based. The settings on record: for Percent EdU+ cells / Z-Score: LOPAC screen at 1 μM, adult rat beta cells, EdU day 3 to 6; for Percent EdU+ cells: control medium 5.6; for Z-Score: hit cut-off three standard deviations. As to the method:
(§1) On day 1, 9 and 15 of culture, total numbers of living beta cells per well were determined by semi-automatic cell count, after Hoechst 33342 (Ho) and propidium iodide (PI) staining. Numbers of living beta cells were obtained by subtracting the PI-positive cell numbers from the Ho-positive cell numbers, and correcting for the percent insulin-negative cells, as determined following insulin-immunofluorescence staining. They were expressed as percent of the numbers on day 1. Each condition was also evaluated for increases in the percentage of proliferating beta cells (incorporating the thymidine-analogue 5-ethynyl-2′-deoxyuridine, EdU; 100 μmol/l). To detect beta cells that underwent two successive cycles, cells were sequentially exposed to two different thymidine-analogs, first EdU from day 3 to 6, and then BrdU (100 μmol/l) from day 7 to 10, with a 24-hour label-free period in between. EdU-positive (EdU^+) nuclei were detected with the Click-iT Assay kit (Invitrogen), while BrdU-positive (BrdU^+) nuclei were identified with anti-BrdU antibody.
Freshly purified beta cells were cultured in control medium for 24 h prior to the addition of the LOPAC test compounds (day 1). The culture medium was refreshed on day 3 and the cells were then cultured further with 5-ethynyl-2′-deoxyuridine (EdU; 10 μM) up to day 6. Cell viability and percentage EdU incorporation were quantified after imaging and image analysis using the BD Pathway Bioimager, as described before (Assefa et al., 2014). To test the significance of compound effect on beta cell proliferation, average Z-score for each compound was calculated and a cut-off for potential positive hits was set at a Z-score of greater than three standard deviations. Thus, a compound is considered a hit only if it increases the percent EdU incorporation to above three standard deviation of the plate-averaged percent EdU incorporation.
(§2) Sorted beta cells were seeded in 384-well or 6-well plates coated with 804G matrix, and kept in culture for up to 15 days at 37° C. 5% CO2 using Ham F10 supplemented with 1 mM L-glutamine, 0.1 mg/ml streptomycin, 0.075 mg/ml penicillin, 50 μM of isobutyl-1-methylxanthine (IBMX) at 10 mM D-glucose with and without synthetic GCs (6 methyl-prednisolone (6MP), dexamethasone (DEX), GR-modulators (compound A (CPA), mifepristone (MIF), and NFκB inhibitors (JSH-23 en Bay11-7085). Total cell number and beta cell viability was evaluated after incubation with Hoechst 33342 and propidium iodide. All chemicals were from Sigma Life Sciences or Merck. Quantification of cell numbers and analysis of beta-cell viability was done using the Pathway Bioimager (BD Biosciences) and using IPlab and Attovision software for background subtraction as described prior (Assefa et al., 2014). Replicating beta cells were quantified after 24 or 72 hrs incubation with 5-ethynyl-2′-deoxyuridine (EdU, a thymidine analog) using the ClickIT EDU Alexa Fluor assay (Invitrogen). EdU-positive cells were expressed as percentage of total cell number.

Data set [3] concerns rat beta cells. Briefly: Number of living beta cells in culture (Hoechst 33342/propidium iodide whole-well imaging counts; expansion assay). It counts as cell-based. As to the method: (§3) Beta cells were FACS-purified from islet-cell enriched suspensions (Pipeleers et al., 1985) prepared from neonatal (2-3 days-old) and adolescent or adult (8 or 40-week-old, male) Wistar rats (Janvier Bioservices, France); their purity was, respectively 70-75% and over 90%. Sorted cells were counted in a hemocytometer, seeded (day 0) and cultured for up to 15 days in serum-free Ham's-F10 medium at 5, 10 or 20 mmol/l glucose, supplemented with 2 mmol/l L-glutamine, 50 μM 3-isobutyl-1-methylxanthine, 0.5% Albumax-I, penicillin (100 U/ml) and streptomycin (0.1 mg/ml). The 10 mmol/l glucose condition is known to maintain beta cell survival over 9-days (Ling et al., 1994; Ling and Pipeleers, 1994). Medium and cells were retrieved after selected culture periods and assayed for insulin content; data were expressed as a function of the number of living beta cells that was determined in parallel wells.
as §1
(§4) Absolute number of cells was determined by whole-well imaging using the BD-PathwayBioimager855 (BD-Biosciences). IPLab and AttoVision software packages (BD-Biosciences) were used for image background subtraction, segmentation and quantification.
Experimental procedures for isolation of beta cells from neonatal (2-3 days old) and adult (8 or 40 week old, male) Wistar rats (Janvier Bioservices, France) and analysis of their number, viability and proliferation activity in culture have been described before (Assefa et al., 2014). Sorted beta cells were seeded in 804G matrix-coated plates (designated as day 0) and the numbers and viability of seeded cells at the start of all experiments were determined on day 1 (24 h after seeding). The cells were cultured in control medium, which is a serum-free Ham's F10 medium supplemented with 2 mM L-glutamine, 50 μM 3-isobutyl-1-methylxanthine, 0.5% Albumax I, penicillin (100 U/ml), streptomycin (0.1 mg/ml) and, unless indicated otherwise, 10 mM glucose.
as §2, with “2014).” for “2014). Replicating beta cells were quantified after 24 or 72 hrs incubation with 5-ethynyl-2′-deoxyuridine (EdU, a thymidine analog) using the ClickIT EDU Alexa Fluor assay (Invitrogen). EdU-positive cells were expressed as percentage of total cell number.”

In data set [4] the test system is rat beta cells. Briefly: Cellular insulin content, insulin release and glucose-stimulated insulin secretion of cultured beta cells. It counts as cell-based. As to the method: as §3
The test system of data set [5] is rat beta cells. Description: Beta cell viability / cell death (propidium iodide assay). It counts as cell-based. The following applies: for Percent viable cells: LOPAC screen at 1 μM, adult rat beta cells, day 6, control medium 97.
Source text: as §1, with “Numbers” for “On day 1, 9 and 15 of culture, total numbers of living beta cells per well were determined by semi-automatic cell count, after Hoechst 33342 (Ho) and propidium iodide (PI) staining. Numbers”, “Each condition was also evaluated for increases in the percentage of proliferating beta cells (incorporating the thymidine-analogue 5-ethynyl-2′-deoxyuridine, EdU; 100 μmol/l).” left out
as §4
Freshly purified beta cells were cultured in control medium for 24 h prior to the addition of the LOPAC test compounds (day 1). The culture medium was refreshed on day 3 and the cells were then cultured further with 5-ethynyl-2′-deoxyuridine (EdU; 10 μM) up to day 6. […] Thus, a compound is considered a hit only if it increases the percent EdU incorporation to above three standard deviation of the plate-averaged percent EdU incorporation.

Data on seven compounds can be found in US20160274087A1, “SCREENING ASSAY FOR AGENTS THAT INFLUENCE BETA CELL NUMBER AND/OR PHENOTYPE” (VRIJE UNIVERSITEIT BRUSSEL, priority 2013, published 2016).

A value given as a limit tells only on which side of the number the result lay.

On to `C[C@H]1C[C@@H]2[C@H]([C@@H](O)C[C@@]3(C)[C@H]2CC[C@]3(O)C(=O)CO)[C@@]2(C)C=CC(=O)C=C12` [6MP, 6-methylprednisolone], for which, in data set [1], the “CDK4 mRNA level (ΔΔCt values relative to basal vehicle control)” value is recorded as 1.7 ± 0.2^2, the “CXCL11 mRNA level (ΔΔCt values relative to basal vehicle control)” value is given as 0.1 ± 0.0^3, the “Cyclin B1 mRNA level (ΔΔCt values relative to basal vehicle control)” value was 4.7 ± 0.7^3 and the “Cyclin B2 mRNA level (ΔΔCt values relative to basal vehicle control)” value is reported as 4.8 ± 0.8^3. In data set [1], the “Cyclin E1 mRNA level (ΔΔCt values relative to basal vehicle control)” value is recorded as 2.3 ± 0.3^3, the “CyclinD1 mRNA level (ΔΔCt values relative to basal vehicle control)” value is listed as 0.8 ± 0.1^, the “DLK1 mRNA level (ΔΔCt values relative to basal vehicle control)” value was 24491 ± 5157^3 and the “FKBP4 mRNA level (ΔΔCt values relative to basal vehicle control)” value was 1.2 ± 0.1^. Also, in data set [1], the “FKBP5 mRNA level (ΔΔCt values relative to basal vehicle control)” value was 15.4 ± 2.2^3, the “GDF11 mRNA level (ΔΔCt values relative to basal vehicle control)” value is 3.8 ± 1.0^3, the “ICAM1 mRNA level (ΔΔCt values relative to basal vehicle control)” value was 0.1 ± 0.1^3 and the “MKP1 mRNA level (ΔΔCt values relative to basal vehicle control)” value is recorded as 20.7 ± 4.2^3. In addition, in data set [1], the “MafA mRNA level (ΔΔCt values relative to basal vehicle control)” value was 0.2 ± 0.1^3, the “MafB mRNA level (ΔΔCt values relative to basal vehicle control)” value is given as 5.1 ± 0.9^3, the “NNAT mRNA level (ΔΔCt values relative to basal vehicle control)” value is given as 7.4 ± 1.8^3 and the “NPY mRNA level (ΔΔCt values relative to basal vehicle control)” value is 3.8 ± 0.6^3. Moreover, in data set [1], the “NR3C1 mRNA level (ΔΔCt values relative to basal vehicle control)” value is listed as 1.0 ± 0.1^, the “Pdx1 mRNA level (ΔΔCt values relative to basal vehicle control)” value is recorded as 0.5 ± 0.2^3 and the “TRH mRNA level (ΔΔCt values relative to basal vehicle control)” value is on record as 5.3 ± 0.5^3. Also, the “final concentration of optimal potency (dose-response studies)” value in data set [2] (survival and proliferation of rat beta cells, data not shown) stood at 1000 nM. Further, in data set [3] (10 mM glucose and MP), the “cells after 15-day culture compared to day 1 numbers” value was found to be 152±5%. In addition, in data set [3] (6MP 1 μM, DEX 0.01 μM, CPA 0.5 μM), the “change of beta cell numbers between day 1 and 15” value is “nearly double”. The “increase in absolute number of living beta cells in culture” value in data set [3] (two-weeks culture) was “near population doubling”. Besides, in data set [4] (9 days, 6MP followed by 6 days, basal), the “Insulin Release during last 72 h of culture” value is reported as 1.6 ± 1 ng/10^3 cells/h. Also, the “glucose-induced insulin secretion, Day 15” value in data set [4] (9 days, 6MP followed by 6 days, basal, 2.5 mM glucose) is on record as 24.4 ± 3.3 % of content/h. For the same compound, in data set [4] (9 days, 6MP followed by 6 days, basal, 5 mM glucose), the “glucose-induced insulin secretion, Day 15” value is on record as 34.3 ± 3.9 % of content/h. Besides, the “glucose-induced insulin secretion, Day 15” value in data set [4] (9 days, 6MP followed by 6 days, basal, 10 mM glucose) is recorded as 46.8 ± 7.7 % of content/h. For the same compound, the “glucose-induced insulin secretion, Day 15” value in data set [4] (9 days, 6MP followed by 6 days, basal, 20 mM glucose) is listed as 52.1 ± 1.8 % of content/h. The “Insulin Release during last 72 h of culture” value in data set [4] (15 days, 6MP) amounted to 0.9 ± 0.1 ng/10^3 cells/h. Further, in data set [4] (15 days, 6MP, 2.5 mM glucose), the “glucose-induced insulin secretion, Day 15” value was 35.3 ± 7.4 % of content/h. For the same compound, in data set [4] (15 days, 6MP, 5 mM glucose), the “glucose-induced insulin secretion, Day 15” value is recorded as 37.7 ± 4.0 % of content/h. Moreover, the “glucose-induced insulin secretion, Day 15” value in data set [4] (15 days, 6MP, 10 mM glucose) is listed as 43.2 ± 6.8 % of content/h. For the same compound, the “glucose-induced insulin secretion, Day 15” value in data set [4] (15 days, 6MP, 20 mM glucose) is given as 44.0 ± 4.8 % of content/h.
As to `C[C@H]1C[C@H]2[C@@H]3CCC4=CC(=O)C=C[C@]4(C)[C@@]3(Cl)[C@@H](O)C[C@]2(C)[C@@]1(O)C(=O)CO` [Beclomethasone], in data set [2], the “Percent EdU+ cells” value is given as 20.6% and the Z-Score is on record as 5.9. In data set [5], this compound displayed a Percent viable cells of 96%.
On to `C[C@H]1C[C@H]2[C@@H]3CCC4=CC(=O)C=C[C@]4(C)[C@@]3(F)[C@@H](O)C[C@]2(C)[C@@]1(O)C(=O)CO` [Betamethasone], for which, in data set [2], the “Percent EdU+ cells” value was 21.1% and the Z-Score is recorded as 5.5. In data set [5], this compound gave a Percent viable cells of 95%.
On to `CCCC1O[C@@H]2C[C@H]3[C@@H]4CCC5=CC(=O)C=C[C@]5(C)[C@H]4[C@@H](O)C[C@]3(C)[C@]2(C(=O)CO)O1` (stereo partly shown) [Budesonide], for which, in data set [2], the “Percent EdU+ cells” value is 24.9% and the Z-Score was determined as 4.1. The Percent viable cells in data set [5] is 97%.
As for `C[C@]12CCC(=O)C=C1CC[C@@H]1[C@@H]2CC[C@@]2(C)[C@H]1CC[C@]2(O)C(=O)CO` [Cortexolone], in data set [2], the “Percent EdU+ cells” value came out at 13.1% and the Z-Score is 4.1. The Percent viable cells in data set [5] worked out at 97%.
Consider `CS(=O)(=O)c1ccc([C@@H](CC2CCCC2)C(=O)Nc2nccs2)cc1` [GKA, RO-28-1675], for which the “effect of 15-day continuous treatment on beta cell survival” value in data set [5] (10 mM glucose, irrespective of MP, data not shown) is “induces cytotoxicity and a net cell loss”. Besides, in data set [5] (GKA 3 μm, beta cells from 8- and 40-week old rats, 5 mmol/l glucose, data not shown), the “marked cytotoxicity at day 15” value is given as “not observed”. Moreover, in data set [5] (GKA 3 μm, neonatal beta cells, 5 mmol/l glucose), the “dead cells at day 15 (cytotoxicity)” value is over 50%.
In the case of `C[C@@H]1C[C@@H]([C@H](O)CC2CC(=O)NC(=O)C2)C(=O)[C@@H](C)C1` [cycloheximide], in data set [5] (within 48 h, purified rat beta cells), the “number of dead cells (induction of apoptosis)” value is “dose-dependent increase in the number of dead cells”.
